Assay results reported in ChEMBL document CHEMBL3885881, “DrugMatrix”.

Species on record: Rattus norvegicus
Experiment: DrugMatrix - Regimen: Daily Repeat
Format: toxicity, organism-based, Sprague-Dawley
Set-up: regimen Daily Repeat, gender Male, age 6-8 weeks
Conditions: in vivo, po, route oral GAVAGE, […]; for ABSOLUTE BASOPHIL / ABSOLUTE EOSINOPHIL / ABSOLUTE LYMPHOCYTE / ABSOLUTE MONOCYTE / ABSOLUTE SEGMENTED NEUTROPHIL / BASOPHIL / EOSINOPHIL / ERYTHROCYTE COUNT / HEMATOCRIT / HEMOGLOBIN / LEUKOCYTE COUNT / LYMPHOCYTE / MEAN CORPUSCULAR HEMOGLOBIN / MEAN CORPUSCULAR HEMOGLOBIN CONCENTRATION / MEAN CORPUSCULAR VOLUME / MONOCYTE / NEUTROPHIL / NUCLEATED RED BLOOD CELLS / PLATELET COUNT: tissue Blood; for ALANINE AMINOTRANSFERASE / ALBUMIN / ALKALINE PHOSPHATASE / ASPARTATE AMINOTRANSFERASE / BLOOD UREA NITROGEN / CARBON DIOXIDE / CHLORIDE / CHOLESTEROL / CREATINE PHOSPHOKINASE / CREATININE / GLUCOSE / LACTATE DEHYDROGENASE / LIPASE / PHOSPHORUS / POTASSIUM / SODIUM / TOTAL BILIRUBIN / TOTAL PROTEIN / URIC ACID: tissue Plasma
[1] = 0 mg/kg, 72 h, dose level Control, time 3 day
[2] = 0 mg/kg, 120 h, dose level Control, time 5 day
[3] = 47 mg/kg, 72 h, dose level Low, time 3 day

CC(=O)Nc1nnc(S(N)(=O)=O)s1 [ACETAZOLAMIDE]
ABSOLUTE BASOPHIL [1]: 0 CELLS/uL
ABSOLUTE EOSINOPHIL [1]: 41.83 CELLS/uL
ABSOLUTE LYMPHOCYTE [1]: 8545.5 CELLS/uL
ABSOLUTE MONOCYTE [1]: 240 CELLS/uL
ABSOLUTE SEGMENTED NEUTROPHIL [1]: 906 CELLS/uL
BASOPHIL [1]: 0%
EOSINOPHIL [1]: 0.33%
ERYTHROCYTE COUNT [1]: 5.6 x10E6/uL
HEMATOCRIT [1]: 35.4%
HEMOGLOBIN [1]: 13.42 G/DL
LEUKOCYTE COUNT [1]: 9.73 x10E3/uL
LYMPHOCYTE [1]: 87.83%
MEAN CORPUSCULAR HEMOGLOBIN [1]: 23.98 pg
MEAN CORPUSCULAR HEMOGLOBIN CONCENTRATION [1]: 37.92 G/DL
MEAN CORPUSCULAR VOLUME [1]: 63.3 fL
MONOCYTE [1]: 2.5%
NEUTROPHIL [1]: 9.33%
NUCLEATED RED BLOOD CELLS [1]: 0 /100WBC
PLATELET COUNT [1]: 1032 x10E3/uL
ALANINE AMINOTRANSFERASE [1]: 72.83 u/L
ALBUMIN [1]: 4 G/DL
ALKALINE PHOSPHATASE [1]: 322.83 u/L
ASPARTATE AMINOTRANSFERASE [1]: 102.67 u/L
BLOOD UREA NITROGEN [1]: 12 mg/dL
CARBON DIOXIDE [1]: 34.33 mmol/L
CHLORIDE [1]: 97.67 MEQ/L
CHOLESTEROL [1]: 82.5 mg/dL
CREATINE PHOSPHOKINASE [1]: 410.33 u/L
CREATININE [1]: 0.18 mg/dL
GLUCOSE [1]: 164.5 mg/dL
LACTATE DEHYDROGENASE [1]: 119.5 u/L
LIPASE [1]: 11.83 u/L
PHOSPHORUS [1]: 9.52 mg/dL
POTASSIUM [1]: 5.56 MEQ/L
SODIUM [1]: 142.48 MEQ/L
TOTAL BILIRUBIN [1]: 0.18 mg/dL
TOTAL PROTEIN [1]: 5.77 G/DL
URIC ACID [1]: 0.48 mg/dL
ABSOLUTE BASOPHIL [2]: 0 CELLS/uL
ABSOLUTE EOSINOPHIL [2]: 0 CELLS/uL
ABSOLUTE LYMPHOCYTE [2]: 9065 CELLS/uL
ABSOLUTE MONOCYTE [2]: 341.33 CELLS/uL
ABSOLUTE SEGMENTED NEUTROPHIL [2]: 527 CELLS/uL
BASOPHIL [2]: 0%
EOSINOPHIL [2]: 0%
ERYTHROCYTE COUNT [2]: 5.25 x10E6/uL
HEMATOCRIT [2]: 34.08%
HEMOGLOBIN [2]: 13.5 G/DL
LEUKOCYTE COUNT [2]: 9.93 x10E3/uL
LYMPHOCYTE [2]: 91.17%
MEAN CORPUSCULAR HEMOGLOBIN [2]: 25.7 pg
MEAN CORPUSCULAR HEMOGLOBIN CONCENTRATION [2]: 39.62 G/DL
MEAN CORPUSCULAR VOLUME [2]: 64.93 fL
MONOCYTE [2]: 3.33%
NEUTROPHIL [2]: 5.5%
NUCLEATED RED BLOOD CELLS [2]: 0 /100WBC
PLATELET COUNT [2]: 1077.5 x10E3/uL
ALANINE AMINOTRANSFERASE [2]: 57.83 u/L
ALBUMIN [2]: 4.07 G/DL
ALKALINE PHOSPHATASE [2]: 319.17 u/L
ASPARTATE AMINOTRANSFERASE [2]: 83.33 u/L
BLOOD UREA NITROGEN [2]: 13.67 mg/dL
CARBON DIOXIDE [2]: 30.83 mmol/L
CHLORIDE [2]: 98.33 MEQ/L
CHOLESTEROL [2]: 64.83 mg/dL
CREATINE PHOSPHOKINASE [2]: 263.67 u/L
CREATININE [2]: 0.2 mg/dL
GLUCOSE [2]: 182.83 mg/dL
LACTATE DEHYDROGENASE [2]: 124 u/L
LIPASE [2]: 10.5 u/L
PHOSPHORUS [2]: 10 mg/dL
POTASSIUM [2]: 5.78 MEQ/L
SODIUM [2]: 142.48 MEQ/L
TOTAL BILIRUBIN [2]: 0.2 mg/dL
TOTAL PROTEIN [2]: 6 G/DL
URIC ACID [2]: 0.7 mg/dL
ABSOLUTE BASOPHIL [3]: 0 CELLS/uL
ABSOLUTE EOSINOPHIL [3]: 0 CELLS/uL
ABSOLUTE LYMPHOCYTE [3]: 9847 CELLS/uL
ABSOLUTE MONOCYTE [3]: 251.33 CELLS/uL
ABSOLUTE SEGMENTED NEUTROPHIL [3]: 935 CELLS/uL
BASOPHIL [3]: 0%
EOSINOPHIL [3]: 0%
ERYTHROCYTE COUNT [3]: 5.11 x10E6/uL
HEMATOCRIT [3]: 32.2%
HEMOGLOBIN [3]: 12.47 G/DL
LEUKOCYTE COUNT [3]: 11.03 x10E3/uL
LYMPHOCYTE [3]: 88.67%
MEAN CORPUSCULAR HEMOGLOBIN [3]: 24.43 pg
MEAN CORPUSCULAR HEMOGLOBIN CONCENTRATION [3]: 38.77 G/DL
MEAN CORPUSCULAR VOLUME [3]: 63 fL
MONOCYTE [3]: 2.33%
NEUTROPHIL [3]: 9%
NUCLEATED RED BLOOD CELLS [3]: 0 /100WBC
PLATELET COUNT [3]: 1122.33 x10E3/uL
ALANINE AMINOTRANSFERASE [3]: 67 u/L
ALBUMIN [3]: 3.77 G/DL
ALKALINE PHOSPHATASE [3]: 486.33 u/L
ASPARTATE AMINOTRANSFERASE [3]: 91.33 u/L
BLOOD UREA NITROGEN [3]: 11.33 mg/dL
CARBON DIOXIDE [3]: 31 mmol/L
CHLORIDE [3]: 99 MEQ/L
CHOLESTEROL [3]: 74 mg/dL
CREATINE PHOSPHOKINASE [3]: 250 u/L
CREATININE [3]: 0.31 mg/dL
GLUCOSE [3]: 173 mg/dL
LACTATE DEHYDROGENASE [3]: 140.67 u/L
LIPASE [3]: 13.33 u/L
PHOSPHORUS [3]: 10.33 mg/dL
POTASSIUM [3]: 5.3 MEQ/L
SODIUM [3]: 144.37 MEQ/L
TOTAL BILIRUBIN [3]: 0.23 mg/dL
TOTAL PROTEIN [3]: 5.5 G/DL
URIC ACID [3]: 0.67 mg/dL
